Reference: US10487078B2, “Compositions and methods of targeting mutant K-RAS” (NantBio, Inc., priority 2015, dated 2019)
Read-outs that look alike come from different tables or passages of the source.

What was measured:
K-ras G12D = K-ras G12D (Homo sapiens, UniProt P01116, G12D); test: G-LISA Ras activation assay, 293H cells transfected with G12D mutant; type: cell-based; settings: for IC50: 1 hour treatment
Experimental: (§1) 293H cells were seeded in 6-wells at 0.6×10^6 cells per well and transfected next day with 5 μg of Ras wild-type, or G12C, G12D or G12V mutant DNA plasmid vector using transfection reagent Lipofectamine 3000. Next day cells were treated with 3.125-50 μM of Ras compounds for 1 hour. Wild-type transfected cells were subsequently treated with 100 ng/ml EGF for 2 minutes. Cells were washed once in ice-cold PBS, lysed in complete lysis buffer on ice, and processed by G-LISA according to Cytoskeleton protocol.
(§2) In-cell selectivity of the compounds presented herein against a specific K-ras mutant form can also be tested as shown in the following exemplary experiment. 293H cells were seeded in 6-wells and transfected next day with 5 μg of Ras wild-type, or G12C, G12D or G12V mutant DNA plasmid vector. Next day cells were treated with 3.125-50 μM of Ras compounds for 1 hour. Wild-type transfected cells were subsequently treated with 100 ng/ml EGF for 2 minutes. Cells were washed once in ice-cold PBS, lysed in complete lysis buffer on ice, and processed by G-LISA according to Cytoskeleton protocol. FIG. 1 depicts exemplary results.
as §1, with “In still further experiments, the inventors tested selected compounds in a G-LISA assay to compare IC50 values for wild-type and various mutant K-Ras (G12D, G12V) using the following general protocol: 293H” for “293H”

K-ras G12V = K-ras G12V (Homo sapiens, UniProt P01116, G12V); test: G-LISA Ras activation assay, 293H cells transfected with G12V mutant; type: cell-based; settings: 1 hour treatment
Experimental: as §1, §2
as §1, with “In still further experiments, the inventors tested selected compounds in a G-LISA assay to compare IC50 values for wild-type and various mutant K-Ras (G12D, G12V) using the following general protocol: 293H” for “293H”

Panc1 (G12D) cells = test: 72 hr cell viability (CellTiterBlue); type: cell-based; settings: GI50, 72 hr
Experimental: (§3) Viability assays were performed on exemplary compounds and Table 2 below lists exemplary results for selected compounds tested on wild type (Ishikawa) and various K-ras mutants (Panc1-G12D; Panc10.05-G12D; HCT116-G13D).
(§4) Cells are counted and seeded at 1000 cells/36 ul medium/well into 384-well microplates. Cells are returned to 37° C. CO2 incubator for 18 hr. Drug is made as 200× in DMSO and diluted into medium to 10×. To each well is added 4 ul 10× drug, and plates are returned to the incubator. Final assay DMSO concentration is 0.5%. After 72 hr, 8 ul CellTiterBlue (Promega) is added to each well. After 3 hr, fluorescence (Ex550/Em590) is determined on the Victor Plate Reader (Perkin Elmer). Assay range is determined by DMSO control (100% viability) and 100 uM tamoxifen (0% viability). GI50 values are calculated using Graphpad Prism.

Panc10.05 (G12D) cells = test: 72 hr cell viability (CellTiterBlue); type: cell-based; settings: GI50, 72 hr
Experimental: as §3, §4

K-ras G12D (GDP) = K-ras G12D (GDP) (Homo sapiens, UniProt P01116, G12D); test: SPR assay (surface plasmon resonance); type: binding; settings: 25° C., 8% DMSO
Experimental: (§5) Selected compounds were also tested for selective binding to wild type and mutant forms of K-ras in the active and non-active state using surface plasmon resonance, and exemplary results are shown in Table 4.
(§6) The running buffer in all surface plasmon resonance experiments was 10 mM HEPES pH 7.4, 150 mM NaCl, 0.1% (v/v) Tween-20, 1 mM MgCl2, 8% DMSO. Experiments were carried out on the SensiQ Pioneer optical biosensor. The flow rate was set at 50 μL/min and the temperature was 25° C. kRAS protein was immobilized to the Nickel-NTA charged surface of the SensiQ HisCap chip (sensiqtech.com) giving a yield of 4000 RU. Small molecules were prepared in 100% DMSO and further diluted to 8% DMSO in running buffer. The small molecules were injected using the Taylor diffusion gradient injection mode (OneStep®, see e.g., Evaluation of Taylor dispersion injections: Determining kinetic/affinity interaction constants and diffusion coefficients in label-free biosensing, John G. Quinn, Analytical Biochemistry (2011)). Buffer blanks were injected for double referencing purposes. Data processing and model fitting were performed using Qdat.

K-ras G12D (GTP) = K-ras G12D (GTP) (Homo sapiens, UniProt P01116, G12D); test: SPR assay (surface plasmon resonance); type: binding; settings: 25° C., 8% DMSO
Experimental: as §5, §6

K-ras G12V (GTP) = K-ras G12V (GTP) (Homo sapiens, UniProt P01116, G12V); test: SPR assay (surface plasmon resonance); type: binding; settings: 25° C., 8% DMSO
Experimental: as §5, §6

K-ras wild-type (GDP) = K-ras wild-type (GDP) (Homo sapiens, UniProt P01116); test: SPR assay (surface plasmon resonance); type: binding; settings: 25° C., 8% DMSO
Experimental: as §5, §6

K-ras wild-type (GTP) = K-ras wild-type (GTP) (Homo sapiens, UniProt P01116); test: SPR assay (surface plasmon resonance); type: binding; settings: 25° C., 8% DMSO
Experimental: as §5, §6

[1] = tested on: Ras in BxPC-3 (K-Ras wild-type), Panc10.05 (K-Ras G12D mutant), Capan-2 (K-Ras G12V) cells; test: G-LISA Ras inhibition in cancer cell lines (FIG. 2); type: cell-based; settings: 3.1 to 25 μM, 1 hour, then 100 ng/ml EGF 2 minutes
Experimental: To verify the results in specific cancer cell lines, cancer cell lines BxPC-3 (K-Ras wild-type), Panc10.05 (K-Ras G12D mutant), and Capan-2 (K-Ras G12V) were treated with 3.1 to 25 μM of Ras compound A0837 for 1 hour before stimulation with 100 ng/ml EGF for 2 minutes. Cells were washed once in ice-cold PBS, lysed in complete lysis buffer on ice, and processed by G-LISA according to Cytoskeleton protocol.

## Cc1nc(C)c(C(=O)Nc2nc(-c3ccc4[nH]c(=O)[nH]c4c3)cs2)s1 [Compound 4562]
K-ras G12D; 293H transfected with wild-type, G12C, G12D or G12V, 3.125-50 μM, 1 hour
  In-cell selectivity among K-ras forms, G-LISA (FIG. 1): pronounced selectivity towards the G12D mutant form
K-ras G12D; 293H transfected, 3.125-50 μM, 1 hour
  IC50 for G12D compared to the wild type, G-LISA (FIG. 1): lower IC50 as compared to the wild type
K-ras G12D; Table 1, G-LISA, 293H transfected, read-out: IC50 (μM) G12D
  IC50: 10 µM
K-ras G12D; Table 5, IC50, 293H transfected, read-out: G-LISA (G12D)
  IC50: 7 to 13 µM
K-ras G12V; Table 1, G-LISA, 293H transfected, read-out: IC50 (μM) G12V
  IC50: 38 µM
K-ras G12V; Table 5, IC50, 293H transfected, read-out: G-LISA (G12V)
  IC50: 38 µM
Panc1 (G12D) cells
  IC50: 6 µM
Panc10.05 (G12D) cells
  IC50: 2 µM
K-ras G12D (GDP)
  Kd: 111 µM
  SPR Assay G12D (GDP) Rmax: Rmax = 66.0 ± 0.9
K-ras G12D (GTP)
  SPR Assay G12D (GTP) Kd: No binding/fit
K-ras G12V (GTP)
  SPR Assay G12V (GTP) Rmax: Rmax = 300000
K-ras G12V (GTP); value in mM
  Kd: 10 mM
K-ras wild-type (GDP)
  SPR Assay Wild-type (GDP) Kd: No
K-ras wild-type (GTP)
  SPR Assay Wild-type (GTP) Kd: No binding/fit
[1]
  Selectivity of Ras inhibition in cancer cell lines, G-LISA (FIG. 2): clear selectivity towards K-ras mutant G12D
